From patent US10662183B2, “Inhibitors of myocardin-related transcription factor and serum response factor (MRTF/SRF)-mediated gene transcription and methods for use of the same” (THE REGENTS OF THE UNIVERSITY OF MICHIGAN, priority 2014, dated 2020)

Test system: SRE.L-firefly luciferase reporter (Rho/MKL1 pathway) in PC-3 prostate cancer cells
Assay: SRE.L-luciferase reporter assay
Type: cell-based
Conditions: 19 h, PC-3 cells transfected with Gα12Q231L, SRE.L and pRL-TK reporters; compound 19 hrs
Procedure, shortened: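 PC-3 cells co-transfected with Gα12Q231L (2 ng), SRE.L-firefly (50 ng) and pRL-TK Renilla (7 ng) reporters, then treated with 0–100 μM compound for 19 h at 37° C. in 0.5% FBS DMEM. Dual-luciferase luminescence expressed as % inhibition vs DMSO; WST-1 viability at 450 nm; n=3 in triplicate.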

| IC50 | Structure (SMILES) |
| --- | --- |
| 14 µM | O=C(Nc1ccc(Cl)cc1)C1CCN(C(=O)c2cccc(-c3ccco3)c2)C1 (centres unmarked) [Example E-107, N-(4-chlorophenyl)-1-(3-(furan-2-yl)benzoyl)pyrrolidine-3-carboxamide] |
| 6.3 µM | O=C(Nc1ccc(Cl)cc1)C1CCCN(C(=O)c2ccc(-n3cccc3)cc2)C1 (centres unmarked) [Example E-109, 1-(4-(1H-pyrrol-1-yl)benzoyl)-N-(4-chlorophenyl)piperidine-3-carboxamide] |
| 2.9 µM | O=C(Nc1ccc(Cl)cc1)C1CCCN(Cc2ccc(-n3cccc3)cc2)C1 (centres unmarked) [Example E-110, 1-(4-(1H-pyrrol-1-yl)benzyl)-N-(4-chlorophenyl)piperidine-3-carboxamide] |
| 21 µM | O=C(NCc1ccc(Cl)cc1)C1CCCN(C(=O)c2cccc(-c3ccco3)c2)C1 (centres unmarked) [Example E-112, N-(4-chlorobenzyl)-1-(3-(furan-2-yl)benzoyl)piperidine-3-carboxamide] |
| 8 µM | CCNc1ccc(CN2CCCC(C(=O)Nc3ccc(Cl)cc3)C2)cc1 (centres unmarked) [Example E-113, N-(4-chlorophenyl)-1-(4-(ethylamino)benzyl)piperidine-3-carboxamide] |
| 1.6 µM | O=C(Nc1ccc(Cl)cc1)C1CCCN(Cc2ccc(-n3cccn3)cc2)C1 (centres unmarked) [Example E-114, 1-(4-(1H-pyrazol-1-yl)benzyl)-N-(4-chlorophenyl)piperidine-3-carboxamide] |
| 5.2 µM | O=C(Nc1ccc(Cl)cc1)C1CCCN(C(=O)c2cccc(-n3ccnc3)c2)C1 (centres unmarked) [Example E-115, 1-(3-(1H-imidazol-1-yl)benzoyl)-N-(4-chlorophenyl)piperidine-3-carboxamide] |

More lines, now with the values behind:

| Structure (SMILES) | IC50 |
| --- | --- |
| O=C(Nc1ccc(Cl)cc1)C1CN(C(=O)c2cccc(-c3ccccn3)c2)CC(F)(F)C1 (centres unmarked) [Example E-096, N-(4-chlorophenyl)-5,5-difluoro-1-(3-(pyridin-2-yl)benzoyl)piperidine-3-carboxamide] | 1.1 µM |
| O=C(Nc1c(F)cccc1F)C1CCCN(C(=O)c2cccc(-c3ccco3)c2)C1 (centres unmarked) [Example E-097, N-(2,6-difluorophenyl)-1-(3-(furan-2-yl)benzoyl)piperidine-3-carboxamide] | 32 µM |
| O=C(Nc1ccc(Cl)cc1)C1CN(C(=O)c2cccc(-c3ncc[nH]3)c2)CC(F)(F)C1 (centres unmarked) [Example E-098, 1-(3-(1H-imidazol-2-yl)benzoyl)-N-(4-chlorophenyl)-5,5-difluoropiperidine-3-carboxamide] | 10 µM |
| O=C(Nc1ccc(Cl)cc1)C1CN(C(=O)c2cccc(-c3cncnc3)c2)CC(F)(F)C1 (centres unmarked) [Example E-099, N-(4-chlorophenyl)-5,5-difluoro-1-(3-(pyrimidin-5-yl)benzoyl)piperidine-3-carboxamide] | 3.3 µM |
| O=C(Nc1ccc(Cl)cc1)C1CN(C(=O)c2cccc(-c3cccnc3)c2)CC(F)(F)C1 (centres unmarked) [Example E-100, N-(4-chlorophenyl)-5,5-difluoro-1-(3-(pyridin-3-yl)benzoyl)piperidine-3-carboxamide] | 0.91 µM |
| O=C(Nc1ccccc1Cl)C1CCCN(C(=O)c2cccc(-c3ccco3)c2)C1 (centres unmarked) [Example E-101, N-(2-chlorophenyl)-1-(3-(furan-2-yl)benzoyl)piperidine-3-carboxamide] | 5.6 µM |
| N#Cc1ccc(NC(=O)C2CCCN(C(=O)c3cccc(-c4ccco4)c3)C2)cc1 (centres unmarked) [Example E-104, N-(4-cyanophenyl)-1-(3-(furan-2-yl)benzoyl)piperidine-3-carboxamide] | 2.9 µM |
| O=C(Nc1ccc(F)cc1)C1CCCN(C(=O)c2cccc(-c3ccco3)c2)C1 (centres unmarked) [Example E-105, N-(4-fluorophenyl)-1-(3-(furan-2-yl)benzoyl)piperidine-3-carboxamide] | 13 µM |
| O=C(Nc1ccc(Cl)cc1)C1CN(C(=O)c2cccc(-c3cn[nH]c3)c2)CC(F)(F)C1 (centres unmarked) [Example E-106, 1-(3-(1H-pyrazol-4-yl)benzoyl)-N-(4-chlorophenyl)-5,5-difluoropiperidine-3-carboxamide] | 15 µM |
| Cc1ccc(NC(=O)C2CCCN(C(=O)c3cccc(-c4ccco4)c3)C2)cc1 (centres unmarked) [Example E-111, 1-(3-(furan-2-yl)benzoyl)-N-(p-tolyl)piperidine-3-carboxamide] | 15 µM |
